Measured values as given in patent US20090030066A1, “SMALL MOLECULES FOR THE PROTECTION OF PANCREATIC CELLS” (priority 2007, published 2009).

Tests used:
[1] = test system: human bone marrow-derived mesenchymal stem cells (MSC); assay: Expansion (cell count) of human bone marrow-derived mesenchymal stem cells; assay type: cell-based; details: for Cell number per culture: Table 4 experiment; for Cell number/culture: Table 5 experiment
Description: (§1) Bone marrow aspirates were taken from normal adult donors signed after informed consent according to a protocol approved by the appropriate Ethics Committee. For the preparation of bone marrow mesenchymal stem cells, essentially a widely used technique was used as described earlier by others [Pittenger, M. F., Mackay, A. M., Beck, S. C., Jaiswal, R. K., Douglas, R., Mosca, J. D., Moorman, M. A., Simonetti, D. W., Craig, S, and Marshak, D. R., Multilineage potential of adult human mesenchymal stem cells (1999) Science 284, 143-147]. Briefly, nucleated cells were isolated with a pre-prepared commercial density gradient (Lymphoprep, Nycomed, Pharma, Oslo, Norway) and resuspended in Dulbecco's modified Eagle's medium (DMEM) (GIBCO, Grand Island, N.Y.) supplemented with 10% fetal calf serum (FCS), 50 U/ml of penicillin, and 50 μg/ml of streptomycin (GIBCO). All nucleated cells were plated in 25-cm^2 flasks (BD Falcon, Bedford, Mass.) at 37° C. in humidified atmosphere containing 5% CO2. After 24 hours, nonadherent cells were removed and cryopreserved in liquid nitrogen until use. The remaining adherent cells were thoroughly washed with Hanks balanced salt solution (HBSS) (GIBCO). Fresh complete culture medium was added and replaced every 3 or 4 days (twice a week). When cells grew to about 80% confluence, they were suspended and harvested by incubating with a ready-made solution containing 0.25% trypsin and 1 mM EDTA (Sigma-Aldrich, St. Louis, Mo.) for 5 minutes at 37° C.; this cell suspension is designated as passage 1. These cells were further expanded with 1:3-1:5 splitting in 175-cm^2 flasks (BD Falcon).
The total numbers of nucleated and viable cells were determined with a hemocytometer, using Turck's solution and trypan blue stain, respectively. The morphology of MSC was examined every week under an inverted microscope (Olympos CK2, Tokyo, Japan) to verify that cells retained their structural characteristics. In the two experiments described below, MSCs were split into 24-well “F-bottom” plates at passage 5.
In both experiments, about 80% confluent cells were split into 24-well “F-bottom” plates. Then after 24 hours in 10% serum containing medium (at about 30-35% confluence), the medium was replaced for either serum-free medium or 2% or 10 fetal calf serum containing medium. […] In both experiments, the data are the mean ±S.D. of 5 incubations.

[2] = test system: human mesenchymal stem cells; assay: Survival/attachment of human mesenchymal stem cells, compound present during plating; assay type: cell-based; details: 5-10 μM, 10% or 2% serum, 24 h
Description: as §1, with “After 24 hours, nonadherent cells were removed and cryopreserved in liquid nitrogen until use. The remaining adherent cells were thoroughly washed with Hanks balanced salt solution (HBSS) (GIBCO). Fresh complete culture medium was added and replaced every 3 or 4 days (twice a week).” left out, “These cells were further expanded with 1:3-1:5 splitting in 175-cm^2 flasks (BD Falcon).” left out
The total numbers of nucleated and viable cells were determined with a hemocytometer, using Turck's solution and trypan blue stain, respectively. […]

STZ-treated mice = assay: STZ-treated mice, third experiment (fasted): blood glucose, body weight, survival; assay type: in vivo
Method: The effects of CCompound1 on blood glucose level and body weight as well as survival were also examined in a third experiment. Animals weighing between 24.6-25.3 g were selected for this experiment with each group consisting of 6 mice. One group of mice (group 1) received no treatment over the entire experiment, while in the other two groups (groups 2-3), animals were injected (i.p.) with 210 mg/kg of STZ on day 0. Animals in group 3 were also injected (i.p.) with 4.5 mg per kg of CCompound1 once daily for 10 days starting 24 h prior to STZ treatment. CCompound1 and STZ were dissolved as previously indicated.
In this experiment the animals were fasted for 13-14 hours (fasted overnight from 6 p.m. to 7-8 a.m. and returned to normal diet from 8 a.m. to 6 p.m) prior to taking the blood samples.

Compound: Cc1c(OCC(O)C[N+](C)(C)C)cc2c(=O)c3ccccc3sc2c1C.[Cl-] (stereo not shown) [CCcompound1, [3-(3,4-Dimethyl-9-oxo-9H-thioxanthen-2-yloxy)-2-hydroxypropyl]trimethyl-ammonium chloride]
- effect on MSC proliferation ([1]; 10 μM, 10% serum): enhanced cell proliferation
- effect on expansion of stem cells ([1]; 5-10 μM, absence and presence of 2% serum, between days 3 and 6): significantly increased the expansion of stem cells
- effect on MSC cell numbers ([1]; 5-10 μM, absence or presence of 2% serum, first 3 days): slightly enhance cell numbers
- Cell number per culture ([1]; 0% serum, day 2, 5 μM): 6.4 ± 2.0 ×10^−3
- Cell number per culture ([1]; 0% serum, day 2, 10 μM): 5.9 ± 1.9 ×10^−3
- Cell number per culture ([1]; 0% serum, day 2, 50 μM): 4.0 ± 1.6 ×10^−3
- Cell number per culture ([1]; 0% serum, day 4, 5 μM): 8.1 ± 2.1 ×10^−3
- Cell number per culture ([1]; 0% serum, day 4, 10 μM): 6.8 ± 2.4 ×10^−3
- Cell number per culture ([1]; 0% serum, day 4, 50 μM): 3.4 ± 1.1 ×10^−3
- Cell number per culture ([1]; 0% serum, day 6, 5 μM): 12.5 ± 1.6 ×10^−3
- Cell number per culture ([1]; 0% serum, day 6, 10 μM): 10.2 ± 1.4 ×10^−3
- Cell number per culture ([1]; 0% serum, day 6, 50 μM): 3.8 ± 1.2 ×10^−3
- Cell number per culture ([1]; 2% serum, day 2, 5 μM): 7.1 ± 2.7 ×10^−3
- Cell number per culture ([1]; 2% serum, day 2, 10 μM): 6.3 ± 1.6 ×10^−3
- Cell number per culture ([1]; 2% serum, day 2, 50 μM): 3.9 ± 1.1 ×10^−3
- Cell number per culture ([1]; 2% serum, day 4, 5 μM): 11.6 ± 2.4 ×10^−3
- Cell number per culture ([1]; 2% serum, day 4, 10 μM): 9.2 ± 2.3 ×10^−3
- Cell number per culture ([1]; 2% serum, day 4, 50 μM): 5.2 ± 1.6 ×10^−3
- Cell number per culture ([1]; 2% serum, day 6, 5 μM): 20.8 ± 2.5 ×10^−3
- Cell number per culture ([1]; 2% serum, day 6, 10 μM): 17.4 ± 2.0 ×10^−3
- Cell number per culture ([1]; 2% serum, day 6, 50 μM): 7.0 ± 3.3 ×10^−3
- Cell number/culture ([1]; 2.0 μM, 0% serum, Day 3): 4.7 ± 3.5 ×10^−3
- Cell number/culture ([1]; 2.0 μM, 0% serum, Day 6): 6.2 ± 1.7 ×10^−3
- Cell number/culture ([1]; 2.0 μM, 2% serum, Day 3): 4.9 ± 2.6 ×10^−3
- Cell number/culture ([1]; 2.0 μM, 2% serum, Day 6): 16.4 ± 2.5 ×10^−3
- Cell number/culture ([1]; 2.0 μM, 10% serum, Day 3): 5.9 ± 1.7 ×10^−3
- Cell number/culture ([1]; 2.0 μM, 10% serum, Day 6): 33.3 ± 5.2 ×10^−3
- Cell number/culture ([1]; 5.0 μM, 0% serum, Day 3): 5.9 ± 2.1 ×10^−3
- Cell number/culture ([1]; 5.0 μM, 0% serum, Day 6): 10.3 ± 2.5 ×10^−3
- Cell number/culture ([1]; 5.0 μM, 2% serum, Day 3): 7.2 ± 1.3 ×10^−3
- Cell number/culture ([1]; 5.0 μM, 2% serum, Day 6): 18.3 ± 4.8 ×10^−3
- Cell number/culture ([1]; 5.0 μM, 10% serum, Day 3): 6.2 ± 2.6 ×10^−3
- Cell number/culture ([1]; 5.0 μM, 10% serum, Day 6): 36.4 ± 5.2 ×10^−3
- Cell number/culture ([1]; 10.0 μM, 0% serum, Day 3): 6.3 ± 2.2 ×10^−3
- Cell number/culture ([1]; 10.0 μM, 0% serum, Day 6): 13.3 ± 3.2 ×10^−3
- Cell number/culture ([1]; 10.0 μM, 2% serum, Day 3): 5.6 ± 1.6 ×10^−3
- Cell number/culture ([1]; 10.0 μM, 2% serum, Day 6): 19.0 ± 3.8 ×10^−3
- Cell number/culture ([1]; 10.0 μM, 10% serum, Day 3): 5.1 ± 1.7 ×10^−3
- Cell number/culture ([1]; 10.0 μM, 10% serum, Day 6): 39.1 ± 4.1 ×10^−3
- Cell number/culture ([1]; 25.0 μM, 0% serum, Day 3): 4.4 ± 1.7 ×10^−3
- Cell number/culture ([1]; 25.0 μM, 0% serum, Day 6): 6.4 ± 3.1 ×10^−3
- Cell number/culture ([1]; 25.0 μM, 2% serum, Day 3): 4.7 ± 2.6 ×10^−3
- Cell number/culture ([1]; 25.0 μM, 2% serum, Day 6): 12.9 ± 4.9 ×10^−3
- Cell number/culture ([1]; 25.0 μM, 10% serum, Day 3): 5.2 ± 2.1 ×10^−3
- Cell number/culture ([1]; 25.0 μM, 10% serum, Day 6): 33.5 ± 5.3 ×10^−3
- Cell number/culture ([1]; 100.0 μM, 0% serum, Day 3): 1.1 ± 1.6 ×10^−3
- Cell number/culture ([1]; 100.0 μM, 0% serum, Day 6): 1.3 ± 1.1 ×10^−3
- Cell number/culture ([1]; 100.0 μM, 2% serum, Day 3): 1.5 ± 1.1 ×10^−3
- Cell number/culture ([1]; 100.0 μM, 2% serum, Day 6): 5.8 ± 3.2 ×10^−3
- Cell number/culture ([1]; 100.0 μM, 10% serum, Day 3): 4.4 ± 2.5 ×10^−3
- Cell number/culture ([1]; 100.0 μM, 10% serum, Day 6): 14.8 ± 3.1 ×10^−3
- decrease of the effects on cell survival and proliferation when added late ([1]; compound added 6 hours after medium change, data not shown): 50-70%
- effect on number of attached cells [2]: enhanced the number of attached cells
- Blood glucose (STZ-treated mice; STZ 210 mg/kg i.p. day 0 + compound 4.5 mg/kg i.p. daily for 10 days from day −1, fasted, day −1): 2.1 ± 0.3 mM
- Blood glucose (STZ-treated mice; STZ + compound 4.5 mg/kg i.p. daily for 10 days (stopped day 9), fasted, day 14): 11.8 ± 1.0 mM
- Blood glucose (STZ-treated mice; STZ + compound 4.5 mg/kg i.p. daily for 10 days (stopped day 9), fasted, day 21): 12.5 ± 0.8 mM
- Body weight (STZ-treated mice; STZ + compound 4.5 mg/kg i.p. daily for 10 days, day 0): 25.1 ± 0.5 g
- Body weight (STZ-treated mice; STZ + compound 4.5 mg/kg i.p. daily for 10 days, day 3): 24.3 ± 1.0 g
- Body weight (STZ-treated mice; STZ + compound 4.5 mg/kg i.p. daily for 10 days, day 5): 24.2 ± 0.9 g
- Body weight (STZ-treated mice; STZ + compound 4.5 mg/kg i.p. daily for 10 days, day 7): 24.1 ± 0.7 g
- Body weight (STZ-treated mice; STZ + compound 4.5 mg/kg i.p. daily for 10 days, day 9): 24.3 ± 0.8 g
- Body weight (STZ-treated mice; STZ + compound 4.5 mg/kg i.p. daily for 10 days, day 11): 24.3 ± 0.9 g
- Body weight (STZ-treated mice; STZ + compound 4.5 mg/kg i.p. daily for 10 days, day 13): 24.5 ± 1.1 g
- Body weight (STZ-treated mice; STZ + compound 4.5 mg/kg i.p. daily for 10 days, day 15): 23.9 ± 0.4 g
- Body weight (STZ-treated mice; STZ + compound 4.5 mg/kg i.p. daily for 10 days, day 17): 24.5 ± 1.1 g
- Body weight (STZ-treated mice; STZ + compound 4.5 mg/kg i.p. daily for 10 days, day 21): 24.4 ± 1.0 g
- Blood glucose (STZ-treated mice; STZ + compound 4.5 mg/kg i.p. daily for 10 days, fasted, day 0): 2.1 ± 0.2 mM
- Blood glucose (STZ-treated mice; STZ + compound 4.5 mg/kg i.p. daily for 10 days, fasted, day 1): 6.7 ± 0.7 mM
- Blood glucose (STZ-treated mice; STZ + compound 4.5 mg/kg i.p. daily for 10 days, fasted, day 2): 7.1 ± 0.5 mM
- Blood glucose (STZ-treated mice; STZ + compound 4.5 mg/kg i.p. daily for 10 days, fasted, day 3): 7.2 ± 0.5 mM
- Blood glucose (STZ-treated mice; STZ + compound 4.5 mg/kg i.p. daily for 10 days, fasted, day 4): 7.6 ± 0.4 mM
- Blood glucose (STZ-treated mice; STZ + compound 4.5 mg/kg i.p. daily for 10 days, fasted, day 5): 8.2 ± 0.4 mM
- Blood glucose (STZ-treated mice; STZ + compound 4.5 mg/kg i.p. daily for 10 days, fasted, day 6): 8.6 ± 0.3 mM
- Blood glucose (STZ-treated mice; STZ + compound 4.5 mg/kg i.p. daily for 10 days, fasted, day 7): 9.3 ± 0.5 mM
- Blood glucose (STZ-treated mice; STZ + compound 4.5 mg/kg i.p. daily for 10 days, fasted, day 8): 10.4 ± 0.7 mM
- Blood glucose (STZ-treated mice; STZ + compound 4.5 mg/kg i.p. daily for 10 days, fasted, day 9): 11.0 ± 1.1 mM
- mice alive on day 53 (STZ-treated mice; STZ + compound, 6 mice per group): 6
- body weight lost (STZ-treated mice; co-treated with compound and STZ, day 0 to day 21): 0.7 to 1.2 g
- reduction of the effects of STZ on blood glucose level (STZ-treated mice; days 3 and 4): more than 50%
